What was measured:
[1] = system: Douglas-fir explants; assay: Initiation of embryonal suspensor masses (ESM) from Douglas-fir explants on BM1 initiation medium; assay type: cell-based; conditions: for Initiation (#) / Initiation (%): sugar 15000 mg/L in semi-solid BM1 initiation medium, 5-6 weeks, dark
Method: Cones were collected from four mother tree crosses (full-sib families) at a time when the embryos were in the pre-dome and dome stage of development. Cones were transferred on blue ice and stored in plastic bags in a cold room at 0-4° C. until needed for dissections. Seeds were removed from cones and dissected on the same day. After the seeds were removed, they were placed into a beaker containing pre-sterilized water. Seeds were divided into aliquots of 60-80 seeds. Each aliquot was placed into a separate pre-sterilized tea strainer before undergoing the following procedure. First, seeds were agitated in 10% Liqui-nox (+2 droppers full Tween-20 per liter) for 10 minutes. After rinsing the seeds in deionized water (18 megaohms) for 30 minutes, the tea strainers were exposed to 20% (v/v) H2O2 for 10 minutes in a fume hood on a rotary shaker (175 rpm). The H2O2 was diluted just before use with sterile, deionized water. Following application of the H2O2, each strainer was placed into a separate beaker of sterile deionized water, covered with foil, and moved into the laminar flow hood. All subsequent steps were carried out in the laminar flow hood. Each tea strainer was rinsed by agitating 4-8 times in each of 5 separate portions of sterile deionized water. The contents of each tea strainer were then dumped into a large petri dish containing a sterile filter paper and a few millimeters of sterile water (to help keep seeds from drying). Seeds were placed into 60×15 mm sterile petri plates containing 0.2 ml sterile deionized water each. Those seeds not dissected after sterilization were thrown out at the end of the day. Dissections were done in clean laminar flow hoods. Clean gloves were worn throughout the preparatory steps and dissection. Sterile forceps and scalpels were used to carefully split the seed, remove the female gametophyte and nucellus, and to split the female gametophyte. The embryo suspensor was pulled out, but kept attached to (or touching) the female gametophyte. Embryo and gametophyte were placed unto initiation medium BM1 so that the embryo was visible through the petri dish lid. Initiation: Half of the embryos and gametophytes (Group 1) from each cross were placed on a semi-solid BM1 initiation medium (Table 2), the other half (Group 2) were placed on semi-solid BM1 initiation medium in which the maltose was replaced with sucrose (15000 mg/L). The explants were held in an environment at 22°-25 C with a 24 hour dark photoperiod for a time of 5-6 weeks. The length of time depends on the particular genotype being cultured. Embryonal suspensor masses (ESM) (White, translucent, and mucilaginous) were observed beginning 2-3 weeks after inoculation. […] Initiation is defined as growth of an embryonal suspensor mass from an explant. Overall, the percentage of ESMs initiated from explants was 27% for Group A and 18% for Group B. Initiation improved for each of the 4 crosses tested when explants were cultured on initiation medium containing maltose (Group A). Overall, the number of explants initiated increased by 51% for explants cultured on initiation medium containing maltose, compared to explants cultured on initiation medium containing sucrose.

[2] = system: Douglas-fir embryonal suspensor masses; assay: Establishment of embryonal suspensor masses on BM2 maintenance medium; assay type: cell-based; conditions: for Initiation (#) (Establishment Frequencies) / Initiation (%) (Establishment Frequencies) / Initiation (%) (Establishment Frequencies); proportion of established ESMs: sugar 30000 mg/L in solid BM2 maintenance medium, 12-15 subcultures
Method: Maintenance: After 5-6 weeks, ESMs from Group A were subcultured onto a solid BM2 maintenance medium (Table 2), and ESMs from Group B were subcultured unto a BM2 maintenance medium in which the maltose was replaced with sucrose (30000 mg/L). The maintenance medium differs from the initiation medium in that the growth hormones (both auxins and cytokinins) are reduced by at least a full order of magnitude. Osmolality of this medium was typically raised from that of the initiation medium to about 180 mM/kg or higher (typically within the range of about 180-400 mM/kg) by increasing the concentration of myo-inositol to 0.5% w/v. The temperature and photoperiod were again 22°-25 C. with 24 hours in the dark. ESMs were subcultured every 12 days onto fresh maintenance medium. The number of ESMs established from explants for each group after a total of 12-15 subcultures on maintenance is shown in Table 4. An ESM was considered to be established if it weighed between 250 mg and 500 mg (fresh weight) or if measured 1-2 cms in diameter, after several subcultures. The proportion of established ESMs obtained was 18% for explants in Group A and 11% for explants in Group B. The frequencies of established ESMs improved for each of the 4 crosses tested when explants were cultured on maintenance medium containing maltose (Group A). Overall, the number of established ESMs increased by 51% for explants cultured on maintenance medium containing maltose, compared to explants cultured on maintenance medium containing sucrose.

| SMILES | Initiation (#) ([1]; Cross 1) | Initiation (%) ([1]; Cross 1) | Initiation (#) ([1]; Cross 2) | Initiation (%) ([1]; Cross 2) | Initiation (#) ([1]; Cross 3) | Initiation (%) ([1]; Cross 3) | Initiation (#) ([1]; Cross 4) | Initiation (%) ([1]; Cross 4) | Initiation (%) ([1]; Total of 4 crosses (overall)) | Initiation (#) ([1]; Total of 4 crosses) | Initiation (#) (Establishment Frequencies) ([2]; Cross 1) | Initiation (%) (Establishment Frequencies) ([2]; Cross 1) | Initiation (#) (Establishment Frequencies) ([2]; Cross 2) | Initiation (%) (Establishment Frequencies) ([2]; Cross 2) | Initiation (#) (Establishment Frequencies) ([2]; Cross 3) | Initiation (%) (Establishment Frequencies) ([2]; Cross 3) | Initiation (#) (Establishment Frequencies) ([2]; Cross 4) | Initiation (%) (Establishment Frequencies) ([2]; Cross 4) | Initiation (#) (Establishment Frequencies) ([2]; Total of 4 crosses) | Initiation (%) (Establishment Frequencies); proportion of established ESMs ([2]; Total of 4 crosses) | further results |
| --- | --- | --- | --- | --- | --- | --- | --- | --- | --- | --- | --- | --- | --- | --- | --- | --- | --- | --- | --- | --- | --- |
| OC[C@H]1O[C@H](O[C@H]2[C@H](O)[C@@H](O)C(O)O[C@@H]2CO)[C@H](O)[C@@H](O)[C@@H]1O (mixture of isomers) [Group A, maltose] | 63 # | 46% | 30 # | 28% | 21 # | 19% | 13 # | 12% | 27% | 127 # | 36 # | 26% | 11 # | 10% | 20 # | 18% | 17 # | 15% | 84 # | 18% | Initiation for each of the 4 crosses tested, compared with sucrose medium ([1]; each of 4 crosses): improved; increase in number of explants initiated compared to initiation medium containing sucrose ([1]; overall, 4 crosses): 51%; frequencies of established ESMs for each of the 4 crosses tested, compared with sucrose medium ([2]; each of 4 crosses): improved; increase in number of established ESMs compared to maintenance medium containing sucrose ([2]; overall, 4 crosses): 51% |
| OC[C@H]1O[C@@](CO)(O[C@H]2O[C@H](CO)[C@@H](O)[C@H](O)[C@H]2O)[C@@H](O)[C@@H]1O [Group B, sucrose, reference compound] | 42 # | 30% | 20 # | 19% | 14 # | 13% | 8 # | 7% | 18% | 84 # | 20 # | 14% | 6 # | 6% | 12 # | 11% | 13 # | 12% | 51 # | 11% |  |

From US20040237130A1, “Embryogenic culture initiation of douglas-fir by maltose” (Weyerhaeuser Company, priority 2003, published 2004)
